Assays:
MDA-MB-231 tumors = assay: CAR-T/EC17 therapy, fixed dose and dose de-escalation, in mice bearing MDA-MB-231 tumors; type: in vivo; conditions: E2-CAR-T 30 million cells, EC17 dose de-escalation
Excerpt: The effect of EC17 dose de-escalation was investigated on the anti-tumor activity and the toxicity (body weight changes) of CAR-T therapy. Two different anti-fluorescein scFv were used for the CAR constructions (FIG. 1). The first construct of CAR contains the following domains: antiFL(FITC-E2)scFv-IgG4 hinge (CH2 (L235D, N297Q)-CH3)-CD28 TM-4-1BB-CD3z-T2A-EGFRt. The second construct of CAR contains the following domains: antiFL(FITC-4M5.3)scFv-IgG4 hinge (CH2 (L235D, N297Q)-CH3)-CD28 TM-4-1BB-CD3z-T2A-EGFRt. The nucleic acid sequence and amino acid sequence of the CAR of each construct are shown as SEQ ID NOS:1 to 4. Human T cells were isolated, activated and transduced with a lentiviral vector carrying the appropriate CAR gene. CD4+ T cells with the CAR-modification and CD8+ T cells with the CAR-modification were isolated and cultured separately in vitro for about 7 days. CD4+ CAR-T cells and CD8+ CAR-T cells were mixed at a 1:1 ratio before i.v. administration for animal studies.
The second construct 4M5.3-CAR (antiFL(FITC-4M5.3) scFv-IgG4 hinge (CH2 (L235D, N297Q)-CH3)-CD28 TM-4-1BB-CD3z-T2A-EGFRt) was also evaluated. Mice bearing MDA-MB-231 tumors (150-250 mm^3) were used for in vivo studies to evaluate 4M5.3-CAR-T cells. […]

HOS-FRα tumor = assay: CRS toxicity and sodium fluorescein rescue in HOS-FRα tumor-bearing mice; type: in vivo; conditions: i.v. ~95 mg/kg on day 13, plasma 6 hours later
Method: All animal care and use were performed according to NIH guidelines and in compliance with protocols approved by the Purdue University Animal Use and Care Committee. Female 4 to 5-week-old NOD/SCID gamma (NSG™) mice (stock number: 005557) were purchased from The Jackson Laboratory (Bar Harbor, Me.). Unless specifically indicated, all animals were maintained on a FA-deficient diet (TestDiet, St. Louis, Mo.) upon arrival and throughout the study. To establish subcutaneous xenografts, MDA-MB-231 and HOS-FRα were implanted in the right flank region at 2.5×10^6 and 1×10^6 cells per animal, respectively. For intravenous xenografts, THP1-FRβ cells were inoculated at 5×10^6 cells per animal. Subcutaneous tumors were measured 2-3 times per week with a caliper and calculated using the ellipsoidal formula (length×width^2)/2. […] All animal doses (CAR-T cells, EC17, sodium fluorescein) were given intravenously.
Depending on the CAR-T cell dose and how EC17 is administered, tumor-bearing mice receiving FITC-specific CAR-T cells can experience severe CRS and varying degrees of body weight loss. Therefore, a CRS grading system (0-5 scale) was developed to empirically assess CRS toxicity from animals' gross morphology and social behavior to allow for better timing of CRS rescue. While grades 0 and 5 indicated normal (no CRS) or death (due to severe CRS), respectively, grades 1, 2, and 3-4 were considered mild, light-to-moderate, and severe CRS (FIG. 57A). In addition, all EC17 doses were intentionally given towards the end of any given day to allow potential CRS symptoms to develop overnight. On the days immediately following each EC17 dose, animals were scored and rescue agents such as sodium fluorescein, folic acid and leucovorin were used to mitigate CRS toxicity. In this particular instance, a batch of E2 CAR-T cells with a high EGFRt+CD4/CD8 ratio (˜93:7) was given to HOS-FRα tumor-bearing mice at a mixture of ˜2.5 million CD8 and ˜33 million CD4 on day 0 (FIG. 57B). […]

For `O=C([O-])c1ccccc1-c1c2ccc(=O)cc-2oc2cc([O-])ccc12.[Na+].[Na+]` [sodium fluorescein, reference compound], the “antitumor activity after NaFL rescue” value (MDA-MB-231 tumors) was “antitumor activity is maintained” and the “effect of rescue on CAR-T cell derived human cytokines” value (HOS-FRα tumor) was “acted very quickly to reduce CAR-T cell derived human cytokines”.
